Source: PubChem BioAssay (NCI)
Where “and” joins values, the source holds several entries; their conditions need not be identical. Identical values can stand only once.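 Where inhibition never reached the appropriate level, the endpoint shown equals the highest concentration tested. Otherwise, values were interpolated linearly from a five-concentration, 48-hour dose response in 96-well plates. GI50 = concentration required for 50% inhibition of growth. TGI: concentration producing complete growth inhibition.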

Key:
Test in all cases: DTP human tumour cell line panel, 48 h
MALME-3M melanoma = tested on: MALME-3M melanoma
SF-295 CNS = tested on: SF-295 CNS
A498 renal = tested on: A498 renal
CAKI-1 renal = tested on: CAKI-1 renal
EKVX NSCLC = tested on: EKVX NSCLC
NCI-H460 lung = tested on: NCI-H460 lung
TK-10 renal = tested on: TK-10 renal
SF-268 CNS = tested on: SF-268 CNS
NCI/ADR-RES ovarian = tested on: NCI/ADR-RES ovarian
MDA-MB-231 breast = tested on: MDA-MB-231 breast

Compound	TGI (MALME-3M melanoma)	TGI (SF-295 CNS)	TGI (A498 renal)	TGI (CAKI-1 renal)	TGI (EKVX NSCLC)	TGI (NCI-H460 lung)	TGI (TK-10 renal)	TGI (SF-268 CNS)	GI50 (MALME-3M melanoma)	GI50 (SF-295 CNS)	GI50 (A498 renal)	GI50 (NCI/ADR-RES ovarian)	TGI (NCI/ADR-RES ovarian)	GI50 (EKVX NSCLC)	GI50 (NCI-H460 lung)	GI50 (SF-268 CNS)	GI50 (MDA-MB-231 breast)	TGI (MDA-MB-231 breast)	GI50 (CAKI-1 renal)	GI50 (TK-10 renal)
COc1cccc(/C=C/C(=O)c2sc(C(N)=S)nc2C)c1O	> 100 µM	> 100 µM	> 100 µM	> 100 µM	> 100 µM	> 100 µM	> 100 µM	> 100 µM												
COc1ccc(CCN(CC(=O)N(CC(N)=O)C2CCC[C@@H]2OCc2ccccc2)C(=O)CN(C(=O)CN(CCc2ccc(Cl)cc2)C(=O)CN(C(=O)CN(C)Cc2ccccc2F)[C@H](C)C2CCCCC2)[C@H](C)C2CCCCC2)cc1OC (stereo not given in full)	46.2 µM	3.49 µM	> 50 µM		> 50 µM	> 50 µM		> 50 µM	1.66 µM	1.16 µM	1.84 µM	> 50 µM	> 50 µM	2.85 µM	1.94 µM	1.29 µM	2.89 µM	> 50 µM		
Cc1ccc(S(=O)(=O)N2CCN(C=S)CC2)cc1	> 100 µM		> 100 µM		> 100 µM	> 100 µM	> 100 µM	> 100 µM												
CN(C)CCC(CCN(C)C)=NO	> 100 µM	> 100 µM	> 100 µM	> 100 µM	> 100 µM	> 100 µM	> 100 µM	> 100 µM												
CC(=O)O[C@H]1CCN2C(=O)C=CC(OCc3ccccc3)C12 (stereo not given in full)	> 100 µM	> 100 µM	> 100 µM	> 100 µM	> 100 µM	> 100 µM	> 100 µM	> 100 µM												
O=C(O)c1cc(=O)cc(C(=O)O)o1	> 100 µM	> 100 µM	> 100 µM	> 100 µM	> 100 µM	> 100 µM	> 100 µM	> 100 µM	> 100 µM	> 100 µM	> 100 µM	> 100 µM	> 100 µM	> 100 µM	> 100 µM	> 100 µM			> 100 µM	> 100 µM
CCOC(=O)C(CCC(N)=O)(CCC(=O)OC)C(=O)OCC	> 100 µM	> 100 µM	> 100 µM	> 100 µM	> 100 µM	> 100 µM	> 100 µM	> 100 µM												
COc1cc(CNCCN2C(=O)c3ccc4c5c(ccc(c35)C2=O)C(=O)N(CCNCc2cc(OC)c(OC)c(OC)c2)C4=O)cc(OC)c1OC		1.3 µM					1.51 µM	2.37 µM		0.494 µM		2.05 µM	50 µM			0.786 µM	0.181 µM	0.605 µM		0.78 µM
CCOc1ccc(/C=C/c2cc(OC)c(OC)c(OC)c2)cc1	28.8 µM	16.9 µM	30.4 µM	24.1 µM	> 100 µM	> 29.6 µM	> 100 µM	> 25.8 µM												
O=C1C(=C([O-])c2ccccc2)C(=O)c2ccccc21.O=C1C(=C([O-])c2ccccc2)C(=O)c2ccccc21.[Mn+2]	> 100 µM	> 100 µM		> 100 µM	> 100 µM		> 100 µM		> 100 µM	74.6 µM				> 100 µM					> 100 µM	> 100 µM
O=c1c2ccccc2c(/C=N\NC2=NCCN2)c2oc3ccccc3n12		27.8 µM		> 100 µM	37.2 µM	39.5 µM	31.3 µM	> 100 µM		13.5 µM		> 100 µM	> 100 µM	16.5 µM	17.8 µM	57.8 µM	16.7 µM	35 µM	27.2 µM	16.3 µM
OCC[N+]12CCCN1CCC2	> 100 µM	> 100 µM	> 100 µM	> 100 µM	> 100 µM	> 100 µM	> 100 µM	> 100 µM												
c1ccncc1	> 100 µM	> 100 µM	> 100 µM	> 100 µM	> 100 µM	> 100 µM	> 100 µM	> 100 µM												
O=[N+]([O-])c1ccc(C(Cl)C(Cl)c2ccc(C(Cl)C(Cl)c3ccc([N+](=O)[O-])cc3[N+](=O)[O-])cc2)c([N+](=O)[O-])c1 (stereo not given)	2.33 µM and 0.57 µM	25.8 µM and 5.76 µM	11.1 µM and 2.96 µM	5.7 µM and 1.93 µM	6.18 µM and 2.49 µM	2.15 µM and 0.723 µM	14.5 µM and 2.5 µM		0.243 µM	0.602 µM	1.05 µM			0.559 µM	0.249 µM	0.253 µM			0.35 µM	0.536 µM
CC1=NN(C(=O)Nc2ccc(Cl)cc2)C(=O)C2CCC(=O)N12 (stereo not given)		> 100 µM	> 100 µM	> 100 µM	> 100 µM	> 100 µM	> 100 µM	> 100 µM												
N#CC1=C(N)NC(=S)NC12Nc1ccccc1S2 (stereo not given)	56.8 µM	31.7 µM		45 µM	37.9 µM	45.8 µM	> 100 µM		24.2 µM	11.5 µM		26.7 µM	88.7 µM	3.71 µM	17 µM		16.4 µM	70.6 µM	15 µM	41.5 µM
COc1ccc(/C=C2\COc3ccc(O)c(O)c3C2=O)c(OC)c1OC	4.34 µM	> 100 µM	20.8 µM	11.3 µM	25.8 µM	5.75 µM	23.3 µM	21.3 µM	1.77 µM	8.1 µM	5.54 µM			3.65 µM	2.4 µM	3.49 µM	2.22 µM	7.43 µM	2.42 µM	4.03 µM
Oc1ccc2ccccc2c1N=Nc1cc(Cl)ccc1Cl	> 50 µM	28.6 µM		> 50 µM	20.6 µM		35.9 µM	> 50 µM					> 50 µM					27.9 µM		
O=C1C=CC(=C(c2ccccc2)c2ccc(O)cc2)C=C1	28.6 µM	39.6 µM		32.1 µM	35.9 µM	41.7 µM	37.4 µM	43.3 µM					> 100 µM					32.4 µM		
